The values that follow come from ChEMBL document CHEMBL1126519, “Addition of amines to methyl 3-dehydroquinate and 3-dehydroshikimate” (Bioorg Med Chem Lett, 1993).

A short description of this data set: pKA value in aqueous solution. The conditions noted are these: for pKa: aqueous solution.

Molecule `NCc1ccccn1` gave a pKa of 8.62.
As for `NCCc1ccccn1`, the pKa turned out to be 9.52.
For the molecule `CN(C)c1ccc(N)cc1`, the pKa was determined as 6.71.
`COC(=O)C(N)CCCCNC(=O)OC(C)(C)C` (stereo not drawn) gave a pKa of 8.9.
Consider `COC(=O)CN`, for which the pKa was 7.73.
Still for that read-out and setting: in the case of `COC(=O)C(CCCCN)NC(=O)OC(C)(C)C` (stereo not drawn) it was 10.8.
For the molecule `Nc1ccccn1` [2-AMINOPYRIDINE], where the note is “buffer”, the pKA was 7.6.
Turning to `NCCc1ccccc1` [PHENETHYLAMINE], the pKa was 9.08.
